What all share (assay type): cell-based
In one assay the test system is A549. The experiment in a line: Test A: Cytostatic Cell Culture Assay (GI50), A549. As to conditions: Homo sapiens, 120 h; A549 cells, 5 days, SRB; read-out: G150 Lung A549. The text has this:
(§1) Test A: Cytostatic Cell Culture Assay (GI50)
(§2) This assay is based on quantification of cell counts by a calorimetric detection of the cell associated proteins. The assay relies on the ability of sulforhodamine B (SRB) to bind to protein components of cells that have been fixed to tissue-culture plates by trichloroacetic acid (TCA). SRB is a bright-pink aminoxanthene dye with two sulfonic groups that bind to basic amino-acid residues under mild acidic conditions, and dissociate under basic conditions. As the binding of SRB is stoichiometric, the amount of dye extracted from stained cells is directly proportional to the cell mass.
(§3) Cell lines: All cell lines are obtained from ATCC (Manassas, Va.). Cultivation media containing Glutanax, and trypsin are purchased from Invitrogen (Carlsbad, Calif.). Doxorubicin, Clofarabine, TCA and SRB are from Sigma-Aldrich (St. Louis, Mo.). Gemcitabine is obtained from Moravek Biochemicals (Brea, Calif.)
(§4) • 1. Trypsinize the sub-confluent cells, count them, and adjust the cell concentrations according to the cell counts listed in Table 1. • 2. Distribute the cells into the 96-well plates in 150 μL of media. Incubate the plates overnight in humidified CO2 incubator at 37° C. • 3. Fix one plate of each cell line with TCA. Discard the cultivation media from the plates by flicking them gently and add 100 μL cold 10% (vol/vol) TCA to each well. Incubate the plates at 4 degree refrigerator for 1 hour. Discard TCA from the plates by flicking them gently. Rinse plates four times in a washing basin containing tap water. Store the plates at room temperature. These plates represent cell counts on day zero. • 4. Prepare a set of medium solutions containing various concentrations of tested compounds by making 5-fold serial dilutions in 96-well plate. Add 50 μL of the diluted compounds per well. Include controls with untreated cells and cells treated with doxorubicin, clofarabine and gemcitabine. • 5. Incubate the plates for 5 days at 37° C. • 6. Fix the plates with TCA. Discard the cultivation media from the plates by flicking them gently and add 100 μL cold 10% (vol/vol) TCA to each well. Incubate the plates at 4 degree refrigerator for 1 hour. Discard TCA from the plates by flicking them gently. Rinse plates four times in a washing basin containing tap water. • 7. Remove excess water by tapping the plates face down, gently on a paper towel. Allow the plates to air-dry at room temperature. • 8. Add 100 μL of 0.057% SRB solution in 1% (vol/vol) acetic acid to each well of the plates fixed with TCA on day zero and five. Leave at room temperature for 30 minutes. • 9. Flick the plates gently to discard SRB. Rinse the plates four times with 1% (vol/vol) Acetic Acid. • 10. Store the plates at 370 incubator to facilitate faster drying. • 11. Once the plates are completely dry, add 200 μL of 10 mM Tris base solution (pH 10.5) to each well. Leave at room temperature for 30 minutes for SRB to solubilize. • 12. Measure the OD at 500 nm in a microplate reader. • 13. Calculate the percentage of cell-growth inhibition using the next formula: % of control cell growth=100×(ODsample−mean ODday0)/(ODneg control−mean ODday0)
(§5) For GI50 determination, plot a dose-response curves between the compound concentration and percent of growth inhibition. GI50 values can be derived by fitting dose-response curves using sigmoidal dose response equation.

The subject of the next assay is Du145. The experiment in a line: Test A: Cytostatic Cell Culture Assay (GI50), Du145. As to conditions: Homo sapiens, DU-145, 120 h; Du145 cells, 5 days, SRB; read-out: G150 Prostate Du145.
From the text: as §1, §2, §3, §4, §5

A further assay deals with HCT116. The experiment in a line: Test A: Cytostatic Cell Culture Assay (GI50), HCT116. Conditions: Homo sapiens, HCT-116, 120 h; HCT116 cells, 5 days, SRB; read-out: G150 Colon HCT116.
From the text: as §1, §2, §3, §4, §5

The subject of a further assay is Hs578. The experiment in a line: Test A: Cytostatic Cell Culture Assay (GI50), Hs578. Conditions: 120 h; Hs578 cells, 5 days, SRB; read-out: G150 Breast Hs578.
From the text: as §1, §2, §3, §4, §5

The subject of the next assay is NCIH23. The experiment in a line: Test A: Cytostatic Cell Culture Assay (GI50), NCIH23. Conditions: Homo sapiens, NCI-H23, 120 h; NCIH23 cells, 5 days, SRB; read-out: G150 Lung NCIH23.
From the text: as §1, §2, §3, §4, §5

For another assay, the system named is PC3. The experiment in a line: Test A: Cytostatic Cell Culture Assay (GI50), PC3. Conditions: Homo sapiens, PC-3, 120 h; PC3 cells, 5 days, SRB; read-out: G150 Prostate PC3.
From the text: as §1, §2, §3, §4, §5

The test system of a further assay is HCT15. The experiment in a line: Test A: Cytostatic Cell Culture Assay (GI50), HCT15. Conditions: Homo sapiens, HCT-15, 120 h; HCT15 cells, 5 days, SRB; read-out: G150 Colon HCT15.
From the text: as §1, §2, §3, §4, §5

Each structure is given as a SMILES string. Where only a bound is given, the exact number is not on record here.

As to `CCc1ncnc2c1ccn2[C@@H]1O[C@H](CO)[C@@H](O)[C@H]1O` [Example 1, 4-Ethyl-7-(β-D-ribofuranosyl)-7H-pyrrolo[2,3-d]pyrimidine], the IC50 with A549 is 4.4 µM; in the assay with Du145 it was 1.24 µM; in the assay with HCT116 it was 2.56 µM; in the assay on Hs578, 4.68 µM.
In the same order, the values of `OC[C@H]1O[C@@H](n2ccc3c(Cc4ccccc4)ncnc32)[C@H](O)[C@@H]1O` [Example 2, 4-Benzyl-7-(β-D-ribofuranosyl)-7H-pyrrolo[2,3-d]pyrimidine] are above 20 µM, 15.7 µM, above 20 µM and above 20 µM.
In the same order, the values of `COc1ccc(-c2ncnc3c2ccn3[C@@H]2O[C@H](CO)[C@@H](O)[C@H]2O)cc1` [Example 3, 4-(4-Methoxyphenyl)-7-(β-D-ribofuranosyl)-7H-pyrrolo[2,3-d]pyrimidine] are above 20 µM, 1.31 µM, above 20 µM and above 20 µM.
The matching figures for `OC[C@H]1O[C@@H](n2ccc3c(-c4ccc(F)cc4)ncnc32)[C@H](O)[C@@H]1O` [Example 4, 4-(4-Fluorophenyl)-7-(β-D-ribofuranosyl)-7H-pyrrolo[2,3-d]pyrimidine]: above 20 µM, 0.729 µM, above 20 µM and 2.52 µM.
For the molecule `OC[C@H]1O[C@@H](n2ccc3c(-c4ccc[nH]4)ncnc32)[C@H](O)[C@@H]1O` [Example 7, 4-(1H-Pyrrol-2-yl)-7-(β-D-ribofuranosyl)-7H-pyrrolo[2,3-d]pyrimidine], the IC50 in the assay with A549 is above 20 µM; with NCIH23, 2.5 µM; with Du145, 0.63 µM; in the assay with PC3, 1.28 µM; in the assay with HCT116 it was above 20 µM; in the assay with HCT15, 2.44 µM. In addition, the IC50 with Hs578 turned out to be 1.28 µM.
Take `OC[C@H]1O[C@@H](n2ccc3c(-c4nccs4)ncnc32)[C@H](O)[C@@H]1O` [Example 8, 7-(β-D-Ribofuranosyl)-4-(thiazol-2-yl)-7H-pyrrolo[2,3-d]pyrimidine]: the IC50 with A549 worked out at 0.409 µM; with NCIH23, 4.39 µM; in the assay with Du145, 0.019 µM; with PC3 it was 0.104 µM; in the assay with HCT116, 0.484 µM; in the assay with HCT15, 0.208 µM. The IC50 in the assay on Hs578 was found to be 0.294 µM.
As to `OC[C@H]1O[C@@H](n2ccc3c(-c4c[nH]cn4)ncnc32)[C@H](O)[C@@H]1O` [Example 9, 4-(1H-Imidazol-4-yl)-7-(β-D-ribofuranosyl)-7H-pyrrolo[2,3-d]pyrimidine], the IC50 is 2.59 µM with A549; 2.49 µM in the assay with NCIH23; 0.094 µM in the assay on Du145; 0.194 µM with PC3; 3.69 µM in the assay on HCT116; 0.224 µM in the assay on HCT15. The IC50 with Hs578 amounted to 1.94 µM.
Turning to `OC[C@H]1O[C@@H](n2ccc3c(-c4cccnc4)ncnc32)[C@H](O)[C@@H]1O` [Example 10], the IC50 with A549, in the assay on NCIH23, in the assay on Du145, in the assay with PC3, in the assay with HCT116 and with HCT15 was above 20 µM throughout. Further, in the assay on Hs578, the IC50 was above 20 µM.
Consider `OCc1ncnc2c1ccn2[C@@H]1O[C@H](CO)[C@@H](O)[C@H]1O` [Example 11, 4-Hydroxymethyl-7-(β-D-ribofuranosyl)-7H-pyrrolo[2,3-d]pyrimidine], for which the IC50 with A549 came out at 0.252 µM; in the assay with NCIH23 it was 0.028 µM; with Du145 it was 0.03 µM; in the assay on PC3, 0.052 µM; in the assay on HCT116, 0.447 µM; in the assay with HCT15, 0.03 µM. Also, the IC50 in the assay with Hs578 was determined as 0.053 µM.
Regarding `OC[C@H]1O[C@@H](n2ccc3c(-c4ccoc4)ncnc32)[C@H](O)[C@@H]1O` [Example 12, 4-(Furan-3-yl)-7-(β-D-ribofuranosyl)-7H-pyrrolo[2,3-d]pyrimidine], the IC50 worked out at 0.073 µM in the assay on A549; 0.697 µM in the assay on NCIH23; 0.036 µM with Du145; 0.15 µM with PC3; 0.092 µM with HCT116; 0.086 µM with HCT15. Also, the IC50 in the assay on Hs578 is 0.264 µM.
Regarding `OC[C@H]1O[C@@H](n2ccc3c(-c4ccsc4)ncnc32)[C@H](O)[C@@H]1O` [Example 13, 7-(β-D-Ribofuranosyl)-4-(thiophen-3-yl)-7H-pyrrolo[2,3-d]pyrimidine], the IC50 with A549 came out at 0.627 µM; with NCIH23 it was 4.24 µM; with Du145, 0.032 µM; in the assay on PC3, 0.092 µM; with HCT116, 0.216 µM; in the assay on HCT15, 0.098 µM. In addition, in the assay with Hs578, the IC50 came to 0.711 µM.
Turning to `OC[C@H]1O[C@@H](n2ccc3c(-c4cc[nH]c4)ncnc32)[C@H](O)[C@@H]1O` [Example 14, 4-(1H-Pyrrol-3-yl)-7-(β-t-ribofuranosyl)-7H-pyrrolo[2,3-d]pyrimidine], the IC50 with A549 was found to be 0.365 µM; in the assay with NCIH23 it was 2.32 µM; in the assay on Du145, 0.03 µM; in the assay with PC3, 0.384 µM; in the assay on HCT116, 0.5 µM; in the assay with HCT15, 0.163 µM. Besides, in the assay on Hs578, the IC50 was determined as 0.442 µM.
With `OC[C@H]1O[C@@H](n2ccc3c(-c4ccc[se]4)ncnc32)[C@H](O)[C@@H]1O` [Example 15, 7-(O-D-Ribofuranosyl)-4-(selenophen-2-yl)-7H-pyrrolo[2,3-d]pyrimidine], the IC50 in the assay with A549 is 0.23 µM; with NCIH23, 2.52 µM; with Du145, 0.028 µM; with PC3, 0.012 µM; in the assay with HCT116, 0.342 µM; in the assay with HCT15, 0.005 µM. For the same molecule, the IC50 in the assay on Hs578 worked out at 0.29 µM.
Take `OC[C@H]1O[C@@H](n2ccc3c(-c4ccn[nH]4)ncnc32)[C@H](O)[C@@H]1O` [Example 16]: the IC50 turned out to be 3.25 µM with A549; 3.23 µM in the assay on NCIH23; 0.409 µM in the assay on Du145; 0.56 µM with PC3; 7.31 µM with HCT116; 1.06 µM with HCT15. Moreover, the IC50 in the assay on Hs578 stood at 3.94 µM.
Turning to `OC[C@H]1O[C@@H](n2ccc3c(-c4cn[nH]c4)ncnc32)[C@H](O)[C@@H]1O` [Example 17, 4-(1H-Pyrazol-4-yl)-7-(β-D-ribofuranosyl)-7H-pyrrolo[2,3-d]pyrimidine], the IC50 in the assay with A549 is 6.23 µM; with NCIH23, 5.23 µM; in the assay on Du145, 0.075 µM; with PC3 it was 0.427 µM; in the assay on HCT116, 5.69 µM; with HCT15 it was 0.674 µM. Also, the IC50 in the assay with Hs578 worked out at 3.06 µM.
On to `OC[C@H]1O[C@@H](n2ccc3c(-c4ccccn4)ncnc32)[C@H](O)[C@@H]1O` [Example 18, 4-(Pyridin-2-yl)-7-(β-D-ribofuranosyl)-7H-pyrrolo[2,3-d]pyrimidine], for which the IC50 in the assay with A549 was 4.86 µM; in the assay on Du145, 0.387 µM; in the assay on HCT116 it was above 20 µM; with Hs578, above 20 µM.
`OC[C@H]1O[C@@H](n2cc(F)c3c(-c4ccccc4)ncnc32)[C@H](O)[C@@H]1O` [Example 19, 5-Fluoro-4-phenyl-7-(β-D-ribofuranosyl)-7H-pyrrolo[2,3-d]pyrimidine]: the IC50 in the assay on A549 is 12.9 µM; in the assay on Du145 it was 0.581 µM; in the assay with HCT116 it was above 20 µM; in the assay with Hs578, 19.2 µM.

These data come from patent publication US8093226B2, “Cytostatic 7-deazapurine nucleosides” (Institute of Organic Chemistry and Biochemistry of the …, priority 2008, dated 2012).
